Test results published in patent US20250375406A1, “TREATMENT OF NON-ALCOHOLIC STEATOHEPATITIS AND NON-ALCOHOLIC FATTY LIVER DISEASE” (VEROSCIENCE LLC, priority 2022, published 2025).

Experiments:
NASH = experiment: L-DOPA plus pantethine with or without curcumin in high fat high fructose diet mice, Study 2 (Example 4); format: in vivo; settings: vehicle value assigned 1.0 (maximum score); 3 weeks treatment
Text: After 3 weeks on the test diet, animals were sacrificed for analyses of body weight, body fat, blood glucose, and liver physiology.

NASH Mice = experiment: Treatment of NASH mice (high fat high fructose diet) with bromocriptine citrate plus pantethine with or without curcumin, Study 1; format: in vivo; settings: vehicle value assigned 1.0 (maximum score); 6 weeks treatment
Procedure: The curcumin-phosphatidylcholine mixture is stirred until clear while being heated to between 50° C. to 60C. Optionally, add up to 10 ml of water and stir until solution is homogeneous)) (100 mg/kg). […] After 6 weeks on the test diet and treatment, animals were sacrificed for analyses of body weight, body fat, blood glucose, and liver physiology.

Row | SMILES | NASH propensity score (liver weight x body weight x body fat x blood glucose level) (NASH) | NASH propensity scale score (liver weight x body weight x body fat x liver triglyceride content x blood glucose level) (NASH Mice)
1 | N[C@@H](Cc1ccc(O)c(O)c1)C(=O)O [L-DOPA, 3,4-dihydroxyphenylalanine] | 0.61 | –
2 | CC(C)C[C@H]1C(=O)N2CCC[C@H]2[C@]2(O)O[C@](NC(=O)[C@@H]3C=C4c5cccc6[nH]c(Br)c(c56)C[C@H]4N(C)C3)(C(C)C)C(=O)N12 [bromocriptine, 2-bromo-α-ergocriptine] | – | 0.46
